Assays:
[1] = biological target: T1, Proteinase K (Parengyodontium album, UniProt P06873); assay: Proteinase K degradation assay (SDS-PAGE); assay type: in vitro ADME; conditions: 0.5 µg LL-37, 20 ng Proteinase K, 20 mM Tris-HCl pH 8.0, 37 °C, up to 240 min, at least three repetitions
T1 construct: purchased Qiagen, Hilden, Germany
Procedure: A total of 0.5 µg LL-37, either loaded on nanoparticles or not, was subjected to Proteinase K degradation assay. Input samples were taken without Proteinase K added, as a positive control and is considered to be “100%” when calculating protein amounts. LL-37 was incubated in 20 mM Tris-HCl, pH 8.0 with a total of 20 ng Proteinase K (Qiagen, Hilden, Germany) added to the reaction. Samples were incubated at 37 °C until given timepoints where the reaction was stopped by the addition of SDS loading buffer (at a final concentration of 50 mM Tris-HCl pH 6.8, 2% SDS, 10% glycerol, 1% β-mercaptoethanol, 12.5 mM EDTA and 0.02% Bromophenol blue) and samples were then immediately boiled for 10 min at 98 °C.
Samples were loaded onto a NuPAGE 4%–12% Bis-Tris gel (Invitrogen, Carlsbad, CA, USA) and run in MES-buffer (Invitrogen) at 40 mA/gel. Since LL-37 is a small peptide, samples were run only halfway through the gel. The gels where then washed in Mill-Q water 3 times, 10 min before immersion in Imperial Protein Stain (Thermo Scientific) for 1 h. After that Mill-Q water was used to destain the gels before image acquisition on GelDoc XRS+ (Bio-Rad, Hercules, CA, USA). Bands were quantified using Image Studio Lite v. 5.2 (LI-COR Biosciences, Lincoln, NE, USA).

[2] = biological target: T1, Proteinase K; design: method as in PMID 10417311; conditions: after 2 h; cited from earlier work
Procedure: In order to assess the enzymatic degradation of LL-37 and the protective potential from the CaPS nanocarriers, a degradation assay utilizing Proteinase K was performed (Sodium Dodecyl Sulfate–Polyacrylamide Gel Electrophoresis, SDS-PAGE).

T1 sequence (P06873 106-384): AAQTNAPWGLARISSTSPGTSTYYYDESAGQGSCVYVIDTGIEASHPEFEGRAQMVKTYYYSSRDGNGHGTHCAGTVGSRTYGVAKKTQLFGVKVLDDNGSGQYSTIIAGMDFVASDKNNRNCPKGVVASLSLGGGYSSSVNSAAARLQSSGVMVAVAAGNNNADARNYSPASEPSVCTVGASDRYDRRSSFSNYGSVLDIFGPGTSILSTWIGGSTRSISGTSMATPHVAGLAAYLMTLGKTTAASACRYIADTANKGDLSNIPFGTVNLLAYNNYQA

CC[C@H](C)[C@H](NC(=O)[C@H](CCCCN)NC(=O)[C@H](CCC(=O)O)NC(=O)[C@H](CCCCN)NC(=O)[C@H](CO)NC(=O)[C@H](CCCCN)NC(=O)[C@H](CCCNC(=N)N)NC(=O)[C@H](Cc1ccccc1)NC(=O)[C@H](Cc1ccccc1)NC(=O)[C@H](CC(=O)O)NC(=O)CNC(=O)[C@H](CC(C)C)NC(=O)[C@@H](N)CC(C)C)C(=O)NCC(=O)N[C@@H](CCCCN)C(=O)N[C@@H](CCC(=O)O)C(=O)N[C@@H](Cc1ccccc1)C(=O)N[C@@H](CCCCN)C(=O)N[C@@H](CCCNC(=N)N)C(=O)N[C@H](C(=O)N[C@H](C(=O)N[C@@H](CCC(N)=O)C(=O)N[C@@H](CCCNC(=N)N)C(=O)N[C@H](C(=O)N[C@@H](CCCCN)C(=O)N[C@@H](CC(=O)O)C(=O)N[C@@H](Cc1ccccc1)C(=O)N[C@@H](CC(C)C)C(=O)N[C@@H](CCCNC(=N)N)C(=O)N[C@@H](CC(N)=O)C(=O)N[C@@H](CC(C)C)C(=O)N[C@H](C(=O)N1CCC[C@H]1C(=O)N[C@@H](CCCNC(=N)N)C(=O)N[C@H](C(=O)N[C@@H](CCC(=O)O)C(=O)N[C@@H](CO)C(=O)O)[C@@H](C)O)C(C)C)[C@@H](C)CC)C(C)C)[C@@H](C)CC [LL-37]
incubation time after which the LL-37 band (4.5 kDa) starts fading [1]: 20 min
uncleaved peptide [2]: ~ 5%

From article PMC7181047, “Flame-Made Calcium Phosphate Nanoparticles with High Drug Loading for Delivery of Biologics” (Molecules, 2020)
